Measured values published in article PMC7080406 (eLife, 2020).
“Also recorded” adds a separate entry of the source. Like-named read-outs stand apart in the source and are kept apart here.

Experiments:
5-HT7A [1] = biological target: T1, 5-HT7A (Homo sapiens, UniProt P34969); test: Off-target radioligand binding, 5-HT7A
T1 construct: expressed in transfected cells; host or cells: HEK293T, transient transfection (NIMH PDSP)
Description: (§1) The Radioligand binding assays were conducted by the NIMH Psychoactive Drug Screening Program (PDSP). The NIMH PDSP is directed by Bryan L. Roth, MD, PhD, at the University of North Carolina at Chapel Hill, North Carolina, and Program Officer Jamie Driscoll at NIMH, Bethesda, MD. Binding assay procedures and protocols are also available online at http://pdspdb.unc.edu/pdspWeb/?site=assays. […] Assay plates were sealed and incubated for 4 hr at 37°C in a humidified incubator until harvesting. Plates were harvested using vacuum filtration onto 0.3% polyethyleneimine pre-soaked 96-well Filtermat A (PerkinElmer) and washed three times with cold wash buffer (50 mM Tris, pH 7.4). Filters were dried and melted with a scintillation cocktail (Meltilex, PerkinElmer). Radioactivity was counted using a Wallac TriLux Microbeta counter (PerkinElmer). Results were analyzed using GraphPad Prism 7.0.

[2] = biological target: T2, MT1 N162Q mutant receptor (Homo sapiens, UniProt P48039, N162Q); test: Tango β-arrestin recruitment assay, MT1 N162Q mutant; format: cell-based; settings: normalized individually (basal 0%, maximum 100%); mean ± SEM, minimum of 3 assays; read-out: pEC50, Tango, MT1 N162Q (converted)
T2 construct: expressed in transfected cells; host or cells: HTLA cells (HEKT based)
T2 sequence (P48039 whole entry N162Q): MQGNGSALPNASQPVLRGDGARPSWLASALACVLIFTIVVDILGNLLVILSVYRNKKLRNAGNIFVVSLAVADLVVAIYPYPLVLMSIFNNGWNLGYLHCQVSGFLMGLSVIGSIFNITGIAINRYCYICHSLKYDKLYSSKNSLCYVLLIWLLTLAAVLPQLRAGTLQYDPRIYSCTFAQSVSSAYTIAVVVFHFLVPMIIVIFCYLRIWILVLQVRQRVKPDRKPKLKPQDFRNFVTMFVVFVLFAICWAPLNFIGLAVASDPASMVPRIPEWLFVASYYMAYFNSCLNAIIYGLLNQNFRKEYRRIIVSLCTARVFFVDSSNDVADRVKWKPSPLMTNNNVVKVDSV
Description: (§2) In brief, HTLA cells were transiently transfected with receptor TANGO DNA constructs overnight in DMEM with 10% FBS. Transfected cells were then plated into poly-L-Lys coated 384-well plates using DMEM supplemented with 1% dialyzed FBS. After 6 hr incubation, drug dilutions, prepared in DMEM with 1% dFBS, were added for incubation overnight (16–20 hr). Medium and drug solutions were removed, Bright-Glo reagent (20 uL/well) was added for luminescence counting 20 min later. Results were analyzed in GraphPad Prism 7.0.

5-HT7A [3] = biological target: T1, 5-HT7A; test: Gs-mediated cAMP production assay (GloSensor); format: cell-based; settings: weak partial agonist; receptor not given
MT2 [4] = biological target: T3, MT2 (Homo sapiens, UniProt P49286); test: Tango β-arrestin recruitment assay, MT2; format: cell-based; set-up: expressed in transfected cells; transient transfection; settings: result in words; compared to G-protein
T3 sequence (P49286 1-362): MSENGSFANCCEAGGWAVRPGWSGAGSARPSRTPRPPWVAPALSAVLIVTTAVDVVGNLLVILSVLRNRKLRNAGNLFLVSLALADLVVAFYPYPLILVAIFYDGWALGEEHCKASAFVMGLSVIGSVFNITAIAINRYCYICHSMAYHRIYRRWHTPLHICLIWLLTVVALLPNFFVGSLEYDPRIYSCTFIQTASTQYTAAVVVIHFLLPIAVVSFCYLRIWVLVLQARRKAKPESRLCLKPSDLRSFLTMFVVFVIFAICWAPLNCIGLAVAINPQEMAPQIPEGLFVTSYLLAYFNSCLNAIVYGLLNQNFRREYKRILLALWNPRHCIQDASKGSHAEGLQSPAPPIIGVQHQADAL
Description: as §2, with “Tango arrestin recruitment assays were carried out according to the previously published procedure [Kroeze et al. (2015)]. In” for “In”

5-HT1A = biological target: T4, 5-HT1A (Homo sapiens, UniProt P08908); test: Off-target radioligand binding, 5-HT1A
T4 construct: expressed in transfected cells; host or cells: HEK293T, transient transfection (NIMH PDSP)
T4 sequence (P08908 1-422): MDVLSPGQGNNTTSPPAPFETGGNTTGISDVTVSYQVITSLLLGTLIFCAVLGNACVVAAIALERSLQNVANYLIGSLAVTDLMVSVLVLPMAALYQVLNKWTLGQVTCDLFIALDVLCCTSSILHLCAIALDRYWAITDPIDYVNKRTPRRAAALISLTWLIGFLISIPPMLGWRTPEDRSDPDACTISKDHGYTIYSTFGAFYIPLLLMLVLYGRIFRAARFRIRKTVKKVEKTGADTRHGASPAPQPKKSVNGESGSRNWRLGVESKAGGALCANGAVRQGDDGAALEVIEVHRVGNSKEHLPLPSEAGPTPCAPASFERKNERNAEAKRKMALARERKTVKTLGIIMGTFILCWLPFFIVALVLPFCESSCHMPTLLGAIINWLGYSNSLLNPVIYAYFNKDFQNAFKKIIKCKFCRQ
Description: as §1

MT2 [5] = biological target: T3, MT2; test: GloSensor Gi/o-mediated cAMP production inhibition assay, MT2; format: cell-based; set-up: expressed in transfected cells; host or cells: HEK293T (ATCC CRL-11268), transient transfection; settings: for EC50: Gi/o mediated
Description: Briefly, HEK293 T cells (as above) were transiently co-transfected with receptor (MT1 or MT2) and GloSensor cAMP (Promega) plasmids overnight, plated in Poly-L-Lysine coated 384-well white clear bottom plates in DMEM + 1% dialyzed FBS. Cells were used for assays at a minimum of 6 hr after plating. Culture medium was first removed and cells were stimulated with drugs in assay buffer (1x HBSS, 20 mM HEPES, 1 mg/ml BSA, 0.1 mg/ml ascorbic acid, pH 7.4) for 15 min at room temperature (this and all the following steps), followed by addition of a mixture of isoproterenol (final of 100 nM) and luciferin (final of 1 mM) for Gi/o-cAMP production inhibition assays and luciferin (final of 1 mM) for Gs-cAMP production assays. The plates were counted for luminescence after 25 min in a luminescence plate reader. Results were analyzed using GraphPad Prism 7.0.

[6] = biological target: T5, MT1 Y281F mutant receptor (Homo sapiens, UniProt P48039, Y281F); test: Tango β-arrestin recruitment assay, MT1 Y281F mutant; format: cell-based
T5 construct: expressed in transfected cells; host or cells: HTLA cells (HEKT based)
T5 sequence (P48039 whole entry Y281F): as the sequence (P48039 whole entry N162Q) above, with Q162N, Y281F counted along it
Description: as §2

MT1 = biological target: T6, MT1 (Homo sapiens, UniProt P48039); test: [3H]melatonin competition radioligand binding, MT1 membranes; settings: read-out: MT1 pKi ± SEM (converted)
T6 construct: expressed in transfected cells; host or cells: HEK293T (ATCC CRL-11268), transient transfection
T6 sequence (P48039 whole entry): as the sequence (P48039 whole entry N162Q) above, with Q162N counted along it
Description: as §1

T1 sequence (P34969 1-445 isoform P34969-2): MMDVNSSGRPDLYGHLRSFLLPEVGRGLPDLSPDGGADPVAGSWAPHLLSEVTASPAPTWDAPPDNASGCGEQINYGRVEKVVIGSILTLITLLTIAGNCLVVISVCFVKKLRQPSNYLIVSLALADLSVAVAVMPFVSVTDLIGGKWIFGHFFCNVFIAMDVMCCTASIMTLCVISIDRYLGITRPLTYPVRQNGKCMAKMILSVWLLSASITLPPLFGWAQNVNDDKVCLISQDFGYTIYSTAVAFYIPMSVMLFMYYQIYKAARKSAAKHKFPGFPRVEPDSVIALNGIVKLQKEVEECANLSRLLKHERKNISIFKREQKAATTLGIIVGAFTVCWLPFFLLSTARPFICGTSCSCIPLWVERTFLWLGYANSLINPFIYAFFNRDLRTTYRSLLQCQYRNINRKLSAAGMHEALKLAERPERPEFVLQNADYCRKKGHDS

COc1ccc2[nH]cc(CCNC(N)=O)c2c1 [Compound 28, [2-(5-methoxy-1H-indol-3-yl)ethyl]urea]
inhibition at 10 µM (5-HT7A [1]; 10 μM): > 50%
Ki (5-HT7A [1]; read-out: pKi, 5-HT7A (converted)): 288 nM
EC50 [2]: 468 nM
EC50 (5-HT7A [3]): 1820 nM
β-arrestin signaling / arrestin recruitment at MT2 (MT2 [4]): dramatically reduced arrestin recruitment; also recorded: marked reduction in β-arrestin signaling compared to G-protein
inhibition at 10 µM (5-HT1A; 10 μM): > 50%
Ki (5-HT1A; read-out: pKi, 5-HT1A (converted)): 851 nM
MT2/MT1 Selectivity (MT2 [5]; Antilog (log(Emax/EC50) MT2 - log (Emax/EC50) MT1), values below 1 = MT1 selectivity): 0.7 fold
EC50 (MT2 [5]; SEM, N = 3, read-out: MT2 pEC50 ± SEM (converted)): 0.0447 nM
EC50 (MT2 [5]; read-out: MT2 EC50): 0.04 nM
Emax (MT2 [5]; MT2, activation compared to melatonin, read-out: MT2 Emax ± SEM): < 70%
MT2 LE (MT2 [5]; ligand efficiency (based on EC50)): 0.85 kcal/mol per non-hydrogen atom
reduction of potency, MT1 Y281F versus WT ([6]; Tango): > 100 fold
EC50 ([6]; normalized individually (basal 0%, maximum 100%), mean ± SEM, minimum of 3 assays, read-out: pEC50, Tango, MT1 Y281F (converted)): 4680 nM
Ki (MT1): 16.6 nM
